US20150225369A1, “DDR2 INHIBITORS FOR THE TREATMENT OF OSTEOARTHRITIS” (Merck Patent GmbH, priority 2012, published 2015)

Legend:
[1] = tested on: proMMP13 production by SW1353 cells; test: Production of MMP13 (proMMP13 ELISA) by SW1353 cells upon stimulation with collagen type II; type: cell-based; conditions: Homo sapiens, SW1353, 72 h, read-out: IC50 [pro-MMP13]
Protocol: The binding of Collagen type II to the DDR2 receptor of the SW1353 cells initiate a signalling cascade resulting in the increase of MMP13 expression. MMP13 is released in the culture medium in its pro-form, the proMMP13 which can be measured with an ELISA.
DDR2 inhibitors are evaluated for their ability to block this signalling cascade and therefore proMMP13 production upon collagen stimulation.
SW1353 cells (ATCC, HTB-94), conserved in liquid nitrogen, are thawed and cultivated at 1.6.10^6 cells in a T75 in RPMI1640 supplemented with 2 mM Glutamin, 1 mM Na-Pyruvate, 10% FCS, at 37° C., 5% CO2 for three days. SW1353 cells are then harvested with trypsin/EDTA and resuspended in RPMI1640 supplemented with 2 mM Glutamin, 1 mM Na-Pyruvate, 25 mM HEPES and 0.5% FCS (assay medium) and inoculated in a 96 well plate at 30 000 cells/well in 100 μL of the assay medium and further incubated 24 hours at 37°, 5% CO2 to enable cell adhesion. For stimulation of the DDR2 receptor, 50 μL of a collagen type II solution 160 μg/mL (final concentration in the well is 40 μg/mL) will be added in each well as well as 50 μL of the different dilutions of the inhibitors (MSCs) from 0.003 μM to 10 μM (final concentration in the plate). Each condition is performed in four-plicates. After three additional days of culture, the supernatant will be harvested for proMMP13 measurement.
The Different Controls Present on Each Plate are Composed of Assay Medium with: Positive control (with the reference compound): 40 μg/mL Collagen type II, 0.03 μM Dasatinib (reference compound) in 0.1% DMSO Negative control (no inhibition): 40 μg/mL Collagen type II and 0.1% DMSO Medium control (no stimulation): 0.005% Acetic acid and 0.1% DMSO All wells contains 0.1% DMSO and 0.005% acetic acid.
The solutions needed are: • Collagen type II is diluted at 2 mg/mL in 0.25% acetic acid. This stock solution can be stored at 4° C. for a week and is diluted 1/12.5 in the assay medium (to obtain 160 μg/mL in 0.02% acetic acid) before being used in the assay. • MSCs from 0.012 to 40 μM in assay medium with 0.4% DMSO (they are then further diluted ¼ in the assay plate) • Dasatinib 0.12 μM in assay medium with 0.4% DMSO (it is then further diluted ¼ in the assay plate) • Acetic acid 0.02% in assay medium (control).
The harvested supernatants are either directly used or stored at −20° C. until use. ProMMP13 is measured with a commercial ELISA kit, according the recommendation of the manufacturer (see Annex). Briefly, 50 μL of each samples are used undiluted and the standard curve is realised in the assay medium. At the end of the assay the ELISA plate is read on a Paradigm MTP-Reader (Beckman Coulter) at 540 (reference wavelength) and 450 nm. All the absorbance values obtained at 450 nm are corrected with the absorbance at 540 nm and a ‘Four Parameter Fit’ is used to establish the standard curve. From the standard curve the concentrations of proMMP13 in all the samples are calculated. All the calculations are realised by the Paradigm software.
The data reported in the database are the % effect of the compounds at the two highest concentrations (10 and 3 μM) as well as the IC50.
% effect at the two highest concentrations is calculated according to the formula: […]
The IC50s are calculated with the software Graph Pad Prism (see tables in Example 1).

[2] = molecular target: T1, His-tagged human recombinant DDR-2 kinase domain (His-TEV-DDR2 467-855 aa) (Homo sapiens, UniProt Q16832); test: Autophosphorylation assay for biochemical activity testing of DDR2 (HTRF)
T1 construct: His-TEV-DDR2 467-855 aa
T1 sequence (Q16832 467-855): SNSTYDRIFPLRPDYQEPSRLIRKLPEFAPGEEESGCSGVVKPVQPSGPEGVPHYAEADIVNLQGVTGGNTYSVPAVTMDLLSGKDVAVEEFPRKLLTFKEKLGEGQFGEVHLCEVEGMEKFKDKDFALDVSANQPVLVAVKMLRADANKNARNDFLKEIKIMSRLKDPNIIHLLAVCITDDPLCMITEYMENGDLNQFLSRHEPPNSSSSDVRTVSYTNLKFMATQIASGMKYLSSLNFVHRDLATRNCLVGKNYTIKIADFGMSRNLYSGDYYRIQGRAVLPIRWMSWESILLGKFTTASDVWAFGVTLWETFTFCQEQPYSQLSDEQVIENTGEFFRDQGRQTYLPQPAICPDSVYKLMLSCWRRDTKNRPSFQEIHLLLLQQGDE
Outline: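 Phospho-tyrosine was detected by HTRF between XL665 anti-6His and cryptate anti-phosphotyrosine PT66 antibodies, using the emission ratio. Inhibition was referenced to the inhibitor-free reaction.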

[3] = tested on: CAR-induced swelling and thermal hyperalgesia; test: Anti-hyperalgesic effect in animals (carrageenan injected into rat knee joint; swelling, Hargreaves test); type: in vivo; conditions: intra-articular administration 30 minutes before CAR, TAC 10 μg/joint
Protocol: In order to induce an inflammation reaction, a carrageenan solution (CAR, 1%, 50 μl) was injected intra-articularly on one side into a rat knee joint. The uninjected side was used for control purposes. Six animals per group were used. The […] was determined by means of a micrometer screw (medial-lateral on the knee joint), and the thermal hyperalgesia was determined by means of a directed infrared light source by the Hargreaves method (Hargreaves et al., 1988) on the sole of the foot. Since the site of inflammation (knee joint) is different from the site of measurement (paw sole), use is made here of the term secondary thermal hyperalgesia, the mechanism of which is of importance for the discovery of effective analgesics.
Experimental description of thermal hyperalgesia (Hargreaves test): the experimental animal is placed in a plastic chamber on a quartz sheet. Before testing, the experimental animal is firstly given about 5-15 minutes time to familiarise itself with the environment. […] Light reflected by the paw is recorded as long as the experimental animal sits still. Withdrawal of the paw interrupts this reflection, after which the infrared light source is switched off and the time from switching on to switching off is recorded. […]

[4] = molecular target: T2, HEK293 transfected with human DDR2 (Homo sapiens, UniProt Q16832); test: Phospho-DDR2 cellular assay (collagen II induced DDR2 phosphorylation, ELISA); type: cell-based; conditions: cellular phospho-DDR2; read-out: IC50 [p-DDR2]
T2 construct: expressed in transfected cells; host or cells: HEK293 (PLT460F_(DDR2)-P7-1)
T2 sequence (Q16832 22-855): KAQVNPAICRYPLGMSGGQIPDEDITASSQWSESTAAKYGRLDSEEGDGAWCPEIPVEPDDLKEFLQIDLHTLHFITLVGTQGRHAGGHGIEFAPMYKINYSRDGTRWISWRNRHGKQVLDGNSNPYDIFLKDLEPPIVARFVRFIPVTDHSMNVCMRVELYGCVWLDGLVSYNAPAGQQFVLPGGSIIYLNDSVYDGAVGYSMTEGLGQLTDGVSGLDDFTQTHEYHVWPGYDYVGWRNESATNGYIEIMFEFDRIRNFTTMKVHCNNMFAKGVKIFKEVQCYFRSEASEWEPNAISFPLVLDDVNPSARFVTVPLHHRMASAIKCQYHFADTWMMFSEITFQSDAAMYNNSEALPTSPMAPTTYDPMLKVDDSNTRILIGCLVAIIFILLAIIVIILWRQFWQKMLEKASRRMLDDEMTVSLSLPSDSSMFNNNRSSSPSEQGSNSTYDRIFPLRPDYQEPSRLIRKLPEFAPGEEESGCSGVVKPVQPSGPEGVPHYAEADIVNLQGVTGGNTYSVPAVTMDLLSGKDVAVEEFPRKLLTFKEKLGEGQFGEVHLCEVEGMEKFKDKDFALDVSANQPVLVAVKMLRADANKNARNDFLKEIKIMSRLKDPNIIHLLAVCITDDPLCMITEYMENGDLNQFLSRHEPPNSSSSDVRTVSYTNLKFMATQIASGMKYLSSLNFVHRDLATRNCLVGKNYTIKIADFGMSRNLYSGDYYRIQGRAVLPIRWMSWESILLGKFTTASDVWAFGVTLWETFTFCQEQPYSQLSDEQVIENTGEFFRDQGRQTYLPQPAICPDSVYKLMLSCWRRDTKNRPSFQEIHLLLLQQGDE
Outline: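 Cells seeded 48 h in 10% FBS, serum-starved 8 h, then given compound (5% DMSO) with 50 μg/ml chicken collagen II for 16 h at 37 °C. Lysates captured on anti-DDR2 antibody plates; phospho-DDR2 detected with HRP anti-phosphotyrosine antibody by chemiluminescence.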

[5] = biochemical DDR2 autophosphorylation

SMILES	IC50 [4] [nM]	IC50 [2, 5] [nM]	IC50 [1] [nM]	IC50 ([2]; 4 nM DDR2 kinase domain, 150 μM ATP, 150 min at 22° C.) [nM]	CAR-induced swelling [3]
CNC(=O)c1cc(Oc2ccc(CNC(=O)Nc3cc(Cl)cnc3Cl)cc2)ccn1 [compound 8]	–	–	278	130	–
C[C@]12C=CC(=O)C=C1CC[C@H]1[C@@H]3C[C@@H](O)[C@](O)(C(=O)CO)[C@@]3(C)C[C@H](O)[C@@]12F [TAC, Triamcinolone]	–	–	–	–	capable of reducing the CAR-induced swelling
CNC(=O)c1cc(Oc2ccc(CNC(=O)Nc3cc(C)c(Cl)cc3OC)cc2)ccn1 [compound 78, 4-{4-[3-(4-Chloro-2-methoxy-5-methyl-phenyl)-ureidomethyl]-phenoxy}-pyridine-2-carboxylic acid methylamide]	24	100	–	–	–

Second part, led by results:

IC50 [4] [nM]	IC50 [2, 5] [nM]	SMILES	IC50 [1] [nM]	IC50 ([2]; 4 nM DDR2 kinase domain, 150 μM ATP, 150 min at 22° C.) [nM]	CAR-induced swelling [3]
35	89	CNC(=O)c1cc(Oc2ccc(CNC(=O)Nc3cc(Cl)c(C)cc3OCCNC(C)C)cc2)ccn1 [compound 183, 4-(4-{3-[5-Chloro-2-(2-isopropylamino-ethoxy)-4-methyl-phenyl]-ureidomethyl}-phenoxy)-pyridine-2-carboxylic acid methylamide]	–	–	–
65	91	CNC(=O)c1cc(Oc2ccc(CNC(=O)Nc3cc(C)c(Cl)cc3OCCN)cc2)ccn1 [compound 145, 4-(4-{3-[2-(2-Amino-ethoxy)-4-chloro-5-methyl-phenyl]-ureidomethyl}-phenoxy)-pyridine-2-carboxylic acid methylamide]	–	–	–
24	64	CNCCOc1ccc(C(F)(F)F)cc1NC(=O)NCc1ccc(Oc2ccnc(C(=O)NC)c2)cc1 [compound 111, 4-(4-{3-[2-(2-Methylamino-ethoxy)-5-trifluoromethyl-phenyl]-ureidomethyl}-phenoxy)-pyridine-2-carboxylic acid methylamide]	–	–	–
115	270	CNCCOc1ccc(S(=O)(=O)C(F)(F)F)cc1NC(=O)NCc1ccc(Oc2ccnc(C(=O)NC)c2)c(C)c1 [compound 189, 4-(2-Methyl-4-{3-[2-(2-methylamino-ethoxy)-5-trifluoromethanesulfonyl-phenyl]-ureidomethyl}-phenoxy)-pyridine-2-carboxylic acid methylamide]	–	–	–
